We go through eleven compounds from patent publication US20250296938A1, “Compounds that Interact with the Ras Superfamily for the Treatment of Cancers, Inflammatory Diseases, Rasopathies, and Fibrotic Disease” (SHY Therapeutics, LLC, priority 2018, published 2025).

Structures are written as SMILES.

One test addresses Rac-1 (Homo sapiens, UniProt P63000). Nature of the test: Ras GTP binding domain inhibition assay (Cy3-GTP/Cy5-GTP competition). The conditions noted are these: with SOS, read-out: Rac-1 + SOS: % inh. The essentials:
(§1)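 First, His-tagged protein is coated on nickel wells overnight at 4 °C. Next, compound (20 μM single point or serial dilution) is added for 3 h at room temperature, with or without Sos exchange factor in the last hour. Finally, 100 nM labelled GTP binds for 45 min and retained signal is measured.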
With `CCOC1CCN(c2nc(-c3nccn3C)nc3sc(-c4ccn(C)n4)c(-c4ccccc4)c23)C1` (stereo not drawn), the inhibition at 20 µM was in the range of 26 to 50%.

As for `COCCn1cc(Nc2nc(-c3ccccn3)nc(OC)c2OC)cn1` [drawing 928], the inhibition at 20 µM fell in the range of 1 to 25%.

On to `COc1nc(-c2ccccn2)nc(Nc2cnn(C)c2)c1OC` [drawing 929], for which the inhibition at 20 µM was found to be 0%.

For `COCCNc1nc(-c2cn(C)cn2)nc2sc(-c3cc(OC)ccc3Cl)c(-c3ccc(OC)cc3)c12` [drawing 930], the inhibition at 20 µM is 51 to 75%.

Turning to `COC1CCN(c2nc(-c3nccn3C)nn3cc(-c4ccccc4)c(-c4ccccc4)c23)C1` (stereo not drawn) [drawing 931], the inhibition at 20 µM is 51 to 75%.

For the compound `COCCNc1nc(-c2cn(C)cn2)nc2sc(-c3cccc(OC)c3Cl)c(-c3ccc(OC)cc3)c12` [drawing 932], the inhibition at 20 µM is 51 to 75%.

Consider `CC(C)CN(C)C(=O)c1nc(-c2ccccn2)nc(O)c1O` [drawing 933], for which the inhibition at 20 µM was in the range of 26 to 50%.

With `CN(Cc1ccccc1)C(=O)c1nc(-c2ccccn2)nc(O)c1O` [drawing 934], the inhibition at 20 µM lay in the range of 26 to 50%.

For the compound `O=C(c1nc(-c2ccccn2)nc(O)c1O)N1CCOCC1` [drawing 935], the inhibition at 20 µM lay in the range of 26 to 50%.

`COc1cccc(Oc2nc(-c3ccccn3)nc(O)c2OC)c1` [drawing 936]: the inhibition at 20 µM fell in the range of 76 to 100%.

Turning to `COc1c(O)nc(-c2ccccn2)nc1Oc1cccnc1` [drawing 937], the inhibition at 20 µM was in the range of 76 to 100%.

The test is the same for the next values; noted with them: without SOS, read-out: Rac-1: % inh.
Take `CCOC1CCN(c2nc(-c3nccn3C)nc3sc(-c4ccn(C)n4)c(-c4ccccc4)c23)C1` (stereo not drawn): the inhibition at 20 µM lay within 1 to 25%.

With `COCCn1cc(Nc2nc(-c3ccccn3)nc(OC)c2OC)cn1` [drawing 928], the inhibition at 20 µM is 1 to 25%.

Regarding `COc1nc(-c2ccccn2)nc(Nc2cnn(C)c2)c1OC` [drawing 929], the inhibition at 20 µM was in the range of 1 to 25%.

With `COCCNc1nc(-c2cn(C)cn2)nc2sc(-c3cc(OC)ccc3Cl)c(-c3ccc(OC)cc3)c12` [drawing 930], the inhibition at 20 µM was 51 to 75%.

On to `COC1CCN(c2nc(-c3nccn3C)nn3cc(-c4ccccc4)c(-c4ccccc4)c23)C1` (stereo not drawn) [drawing 931], for which the inhibition at 20 µM was in the range of 26 to 50%.

Regarding `COCCNc1nc(-c2cn(C)cn2)nc2sc(-c3cccc(OC)c3Cl)c(-c3ccc(OC)cc3)c12` [drawing 932], the inhibition at 20 µM was in the range of 51 to 75%.

`CC(C)CN(C)C(=O)c1nc(-c2ccccn2)nc(O)c1O` [drawing 933]: the inhibition at 20 µM lay within 51 to 75%.

`CN(Cc1ccccc1)C(=O)c1nc(-c2ccccn2)nc(O)c1O` [drawing 934]: the inhibition at 20 µM was 51 to 75%.

As for `O=C(c1nc(-c2ccccn2)nc(O)c1O)N1CCOCC1` [drawing 935], the inhibition at 20 µM lay in the range of 51 to 75%.

For the compound `COc1cccc(Oc2nc(-c3ccccn3)nc(O)c2OC)c1` [drawing 936], the inhibition at 20 µM lay in the range of 76 to 100%.

As to `COc1c(O)nc(-c2ccccn2)nc1Oc1cccnc1` [drawing 937], the inhibition at 20 µM fell in the range of 76 to 100%.

In a further test the target is T1, KRas G12D mutant (Homo sapiens, UniProt P01116, G12D).
T1 construct: fused on or other part: His tag, used for capture on nickel-coated plates
The test is described as above. The settings on record: at 20 μM, with SOS; read-out: KRas G12D mutant + SOS: % inh. In short, it runs like this:
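Ni-plate immobilised His-Ras, overnight 4 °C; cpd 20 μM (or dilution series for IC50), 1% DMSO, 3 h RT; optional His-Sos […] last hour; Cy3- or Cy5-GTP 100 nM, 45 min RT; 3× wash; bound fluorescence read.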
In the case of `CCOC1CCN(c2nc(-c3nccn3C)nc3sc(-c4ccn(C)n4)c(-c4ccccc4)c23)C1` (stereo not drawn), the inhibition at 20 µM lay within 26 to 50%.

`COCCn1cc(Nc2nc(-c3ccccn3)nc(OC)c2OC)cn1` [drawing 928]: the inhibition at 20 µM fell in the range of 1 to 25%.

Regarding `COc1nc(-c2ccccn2)nc(Nc2cnn(C)c2)c1OC` [drawing 929], the inhibition at 20 µM is 0%.

As to `COCCNc1nc(-c2cn(C)cn2)nc2sc(-c3cc(OC)ccc3Cl)c(-c3ccc(OC)cc3)c12` [drawing 930], the inhibition at 20 µM fell in the range of 26 to 50%.

Consider `COC1CCN(c2nc(-c3nccn3C)nn3cc(-c4ccccc4)c(-c4ccccc4)c23)C1` (stereo not drawn) [drawing 931], for which the inhibition at 20 µM fell in the range of 1 to 25%.

For the compound `COCCNc1nc(-c2cn(C)cn2)nc2sc(-c3cccc(OC)c3Cl)c(-c3ccc(OC)cc3)c12` [drawing 932], the inhibition at 20 µM is 26 to 50%.

With `CC(C)CN(C)C(=O)c1nc(-c2ccccn2)nc(O)c1O` [drawing 933], the inhibition at 20 µM fell in the range of 26 to 50%.

On to `CN(Cc1ccccc1)C(=O)c1nc(-c2ccccn2)nc(O)c1O` [drawing 934], for which the inhibition at 20 µM was in the range of 26 to 50%.

As for `O=C(c1nc(-c2ccccn2)nc(O)c1O)N1CCOCC1` [drawing 935], the inhibition at 20 µM was in the range of 26 to 50%.

With `COc1cccc(Oc2nc(-c3ccccn3)nc(O)c2OC)c1` [drawing 936], the inhibition at 20 µM lay within 51 to 75%.

Take `COc1c(O)nc(-c2ccccn2)nc1Oc1cccnc1` [drawing 937]: the inhibition at 20 µM lay within 51 to 75%.

The same test, now with this note: at 20 μM, without SOS; read-out: KRas G12D mutant: % inh.
`CCOC1CCN(c2nc(-c3nccn3C)nc3sc(-c4ccn(C)n4)c(-c4ccccc4)c23)C1` (stereo not drawn): the inhibition at 20 µM lay within 26 to 50%.

On to `COCCn1cc(Nc2nc(-c3ccccn3)nc(OC)c2OC)cn1` [drawing 928], for which the inhibition at 20 µM lay within 1 to 25%.

Consider `COc1nc(-c2ccccn2)nc(Nc2cnn(C)c2)c1OC` [drawing 929], for which the inhibition at 20 µM stood at 0%.

Turning to `COCCNc1nc(-c2cn(C)cn2)nc2sc(-c3cc(OC)ccc3Cl)c(-c3ccc(OC)cc3)c12` [drawing 930], the inhibition at 20 µM was in the range of 26 to 50%.

As to `COC1CCN(c2nc(-c3nccn3C)nn3cc(-c4ccccc4)c(-c4ccccc4)c23)C1` (stereo not drawn) [drawing 931], the inhibition at 20 µM lay within 26 to 50%.

For `COCCNc1nc(-c2cn(C)cn2)nc2sc(-c3cccc(OC)c3Cl)c(-c3ccc(OC)cc3)c12` [drawing 932], the inhibition at 20 µM fell in the range of 26 to 50%.

Consider `CC(C)CN(C)C(=O)c1nc(-c2ccccn2)nc(O)c1O` [drawing 933], for which the inhibition at 20 µM lay in the range of 26 to 50%.

For the compound `CN(Cc1ccccc1)C(=O)c1nc(-c2ccccn2)nc(O)c1O` [drawing 934], the inhibition at 20 µM lay in the range of 26 to 50%.

Turning to `O=C(c1nc(-c2ccccn2)nc(O)c1O)N1CCOCC1` [drawing 935], the inhibition at 20 µM fell in the range of 26 to 50%.

Consider `COc1cccc(Oc2nc(-c3ccccn3)nc(O)c2OC)c1` [drawing 936], for which the inhibition at 20 µM was in the range of 76 to 100%.

Take `COc1c(O)nc(-c2ccccn2)nc1Oc1cccnc1` [drawing 937]: the inhibition at 20 µM lay in the range of 51 to 75%.

The next test deals with Rho-A (Homo sapiens, UniProt P61586). The description is as above. The settings on record: with SOS, read-out: Rho-A + SOS: % inh. The essentials:
as §1
`CCOC1CCN(c2nc(-c3nccn3C)nc3sc(-c4ccn(C)n4)c(-c4ccccc4)c23)C1` (stereo not drawn): the inhibition at 20 µM is 0%.

Regarding `COCCn1cc(Nc2nc(-c3ccccn3)nc(OC)c2OC)cn1` [drawing 928], the inhibition at 20 µM turned out to be 0%.

For the compound `COc1nc(-c2ccccn2)nc(Nc2cnn(C)c2)c1OC` [drawing 929], the inhibition at 20 µM is 1 to 25%.

As for `COCCNc1nc(-c2cn(C)cn2)nc2sc(-c3cc(OC)ccc3Cl)c(-c3ccc(OC)cc3)c12` [drawing 930], the inhibition at 20 µM lay within 26 to 50%.

As for `COC1CCN(c2nc(-c3nccn3C)nn3cc(-c4ccccc4)c(-c4ccccc4)c23)C1` (stereo not drawn) [drawing 931], the inhibition at 20 µM was 26 to 50%.

With `COCCNc1nc(-c2cn(C)cn2)nc2sc(-c3cccc(OC)c3Cl)c(-c3ccc(OC)cc3)c12` [drawing 932], the inhibition at 20 µM is 51 to 75%.

Consider `CC(C)CN(C)C(=O)c1nc(-c2ccccn2)nc(O)c1O` [drawing 933], for which the inhibition at 20 µM fell in the range of 51 to 75%.

As for `CN(Cc1ccccc1)C(=O)c1nc(-c2ccccn2)nc(O)c1O` [drawing 934], the inhibition at 20 µM lay within 51 to 75%.

Consider `O=C(c1nc(-c2ccccn2)nc(O)c1O)N1CCOCC1` [drawing 935], for which the inhibition at 20 µM is 26 to 50%.

On to `COc1cccc(Oc2nc(-c3ccccn3)nc(O)c2OC)c1` [drawing 936], for which the inhibition at 20 µM is 51 to 75%.

With `COc1c(O)nc(-c2ccccn2)nc1Oc1cccnc1` [drawing 937], the inhibition at 20 µM was in the range of 76 to 100%.

Staying with this test, now noted: without SOS, read-out: Rho-A: % inh.
As for `CCOC1CCN(c2nc(-c3nccn3C)nc3sc(-c4ccn(C)n4)c(-c4ccccc4)c23)C1` (stereo not drawn), the inhibition at 20 µM is 26 to 50%.

Consider `COCCn1cc(Nc2nc(-c3ccccn3)nc(OC)c2OC)cn1` [drawing 928], for which the inhibition at 20 µM worked out at 0%.

For `COc1nc(-c2ccccn2)nc(Nc2cnn(C)c2)c1OC` [drawing 929], the inhibition at 20 µM came out at 0%.

Take `COCCNc1nc(-c2cn(C)cn2)nc2sc(-c3cc(OC)ccc3Cl)c(-c3ccc(OC)cc3)c12` [drawing 930]: the inhibition at 20 µM lay in the range of 51 to 75%.

As to `COC1CCN(c2nc(-c3nccn3C)nn3cc(-c4ccccc4)c(-c4ccccc4)c23)C1` (stereo not drawn) [drawing 931], the inhibition at 20 µM lay in the range of 51 to 75%.

Turning to `COCCNc1nc(-c2cn(C)cn2)nc2sc(-c3cccc(OC)c3Cl)c(-c3ccc(OC)cc3)c12` [drawing 932], the inhibition at 20 µM was 51 to 75%.

As for `CC(C)CN(C)C(=O)c1nc(-c2ccccn2)nc(O)c1O` [drawing 933], the inhibition at 20 µM lay in the range of 26 to 50%.

For the compound `CN(Cc1ccccc1)C(=O)c1nc(-c2ccccn2)nc(O)c1O` [drawing 934], the inhibition at 20 µM fell in the range of 51 to 75%.

As for `O=C(c1nc(-c2ccccn2)nc(O)c1O)N1CCOCC1` [drawing 935], the inhibition at 20 µM fell in the range of 26 to 50%.

On to `COc1cccc(Oc2nc(-c3ccccn3)nc(O)c2OC)c1` [drawing 936], for which the inhibition at 20 µM was in the range of 51 to 75%.

For `COc1c(O)nc(-c2ccccn2)nc1Oc1cccnc1` [drawing 937], the inhibition at 20 µM lay within 76 to 100%.
